Experiments:
EGFR (murine) = EGFR (murine) (UniProt P00533); conditions: balb/mk cells
EGFR (human) [1] = molecular target: EGFR (human) (UniProt P00533); conditions: a431
EGFR = EGFR (UniProt P00533)
EGFR (human) [2] = molecular target: EGFR (human) (UniProt P00533); conditions: a431, concentration not given here

Chain of EGFR (human) (P00533 whole entry, looked up): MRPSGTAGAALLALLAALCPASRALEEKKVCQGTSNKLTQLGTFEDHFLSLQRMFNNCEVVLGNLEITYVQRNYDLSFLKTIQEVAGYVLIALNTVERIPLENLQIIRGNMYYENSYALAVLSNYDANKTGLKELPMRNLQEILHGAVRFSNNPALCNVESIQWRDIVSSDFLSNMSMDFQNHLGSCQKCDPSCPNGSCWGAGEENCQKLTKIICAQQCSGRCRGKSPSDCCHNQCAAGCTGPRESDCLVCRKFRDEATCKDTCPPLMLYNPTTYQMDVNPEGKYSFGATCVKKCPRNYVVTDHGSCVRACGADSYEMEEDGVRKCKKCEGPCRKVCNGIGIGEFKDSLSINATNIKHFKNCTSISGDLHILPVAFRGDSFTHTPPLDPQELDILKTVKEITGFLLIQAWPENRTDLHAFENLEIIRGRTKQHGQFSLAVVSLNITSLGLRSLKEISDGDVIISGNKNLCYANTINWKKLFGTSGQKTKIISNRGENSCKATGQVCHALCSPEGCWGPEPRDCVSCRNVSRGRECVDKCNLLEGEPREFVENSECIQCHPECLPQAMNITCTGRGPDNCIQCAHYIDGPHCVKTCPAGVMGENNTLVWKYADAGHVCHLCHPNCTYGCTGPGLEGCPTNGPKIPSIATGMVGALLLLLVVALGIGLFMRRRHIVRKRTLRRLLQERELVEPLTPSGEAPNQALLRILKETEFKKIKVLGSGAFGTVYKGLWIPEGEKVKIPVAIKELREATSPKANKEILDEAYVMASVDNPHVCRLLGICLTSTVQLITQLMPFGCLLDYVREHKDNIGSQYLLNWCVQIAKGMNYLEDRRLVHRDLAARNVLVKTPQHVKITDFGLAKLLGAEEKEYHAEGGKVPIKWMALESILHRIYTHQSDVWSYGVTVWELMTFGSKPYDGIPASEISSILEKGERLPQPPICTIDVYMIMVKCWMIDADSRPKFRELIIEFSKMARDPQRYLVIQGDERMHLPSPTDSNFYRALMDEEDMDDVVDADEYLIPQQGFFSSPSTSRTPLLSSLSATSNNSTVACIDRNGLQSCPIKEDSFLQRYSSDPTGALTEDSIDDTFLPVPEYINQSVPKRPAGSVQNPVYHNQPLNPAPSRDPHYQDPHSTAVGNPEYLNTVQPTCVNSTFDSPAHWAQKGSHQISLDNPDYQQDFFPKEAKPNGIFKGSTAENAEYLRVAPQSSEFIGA
Chain of EGFR (murine) (P00533 whole entry, looked up): as above
Chain of EGFR (P00533 whole entry, looked up): as above

IC50 (EGFR (murine)) [µM] | IC50 (EGFR (human) [1]) [µM] | Structure (SMILES) | further results
 | > 100 | O=C(CCN1CCOCC1)c1ccc(OCc2ccccc2)cc1 | 
 | > 100 | C=C(CN1CCCCC1)C(=O)c1ccc(OCc2ccccc2)cc1 | 
0.95 | > 100 | C=C(CN1CCN(C)CC1)C(=O)c1ccc(OCc2ccccc2)cc1 | IC50 (EGFR): 1.5 µM

Second part, the compound before the results:

Structure (SMILES) | IC50 (EGFR (murine)) [µM] | IC50 (EGFR (human) [1]) [µM] | further results
CC(CN(C)C)C(=O)c1ccc(OS(=O)(=O)c2ccc(C(=O)O)cc2)cc1 (stereo not given) | > 50 |  | 
CN(C)CCC(=O)c1ccc(OCc2ccccc2)cc1 |  | > 100 | 
CN(C)CCCC(=O)c1ccc(OCc2ccccc2)cc1 | > 50 |  | 
N#CC(C#N)=Cc1cc(O)c(O)c(O)c1 | 31.1 |  | IC50 (EGFR): 70 µM
CCOC(=O)C1CCN(CCC(=O)c2ccc(OCc3ccccc3)cc2)CC1 |  | > 100 | 
C=C(CN1CCOCC1)C(=O)c1ccc(OCc2ccccc2)cc1 |  |  | inhibition (EGFR (human) [2]): 100%
C=C(CN(C)C)C(=O)c1ccccc1 |  | > 100 | 
C=C(CN(C)C)C(=O)c1ccc(OS(=O)(=O)c2ccc(C(=O)O)cc2)cc1 | > 50 |  | 
C=C(CN(C)C)C(=O)c1ccc(OCc2ccccc2)c(O)c1 |  | > 100 | 

Source: the Kinase Knowledgebase extract (Sharma et al. 2016)
